pIC50: −log10 of the molar value. Several values for one entry are separate records, joined by “and”; a condition that tells them apart may be missing. Identical values can stand only once.

The pIC50 is the negative decadic logarithm of the IC50, by convention in mol/L.

The assay in a line: Cell-based activity under Prompt Conditions: Cell-based activity under Prompt Conditions. Rat or human NHE3-mediated Na+-dependent H+ antiport was measured using a modification of the pH sensitive dye method originally reported by Paradiso (PNAS USA. 81:7436-7440, 1984). Opossum kidney (OK) cells were obtained from the ATCC and propagated per their instructions. The rat NHE3 gene (GenBank M85300) or the human NHE3 gene (GenBank NM_004174.1) was introduced into OK cells via electroporation, and cells were seeded into 96 well plates and grown overnight. Medium was aspirated from the wells, cells were washed twice with NaCl-HEPES buffer (100 mM NaCl, 50 mM HEPES, 10 mM glucose, 5 mM KCl, 2 mM CaCl2, 1 mM MgCl2, pH 7.4), then incubated for 30 min at room temperature with NH4Cl-HEPES buffer (20 mM NH4Cl, 80 mM NaCl, 50 mM HEPES, 5 mM KCl, 2 mM CaCl2, 1 mM MgCl2, pH 7.4) containing 5 μM bis(acetoxymethyl) 3,3′-(3′,6′-bis(acetoxymethoxy)-5-((acetoxymethoxy)carbonyl)-3-oxo-3H-spiro[isobenzofuran-1,9′-xanthene]-2′,7′-diyl)dipropanoate (BCECF-AM).Cells were washed twice with Ammonium free, Na+-free HEPES (100 mM choline, 50 mM HEPES, 10 mM glucose, 5 mM KCl, 2 mM CaCl2, 1 mM MgCl2, pH 7.4) and incubated in the same buffer for 10 minutes at room temperature to lower intracellular pH. […] Initial rates were plotted as the average 2 or more replicates, and pIC50 values were estimated using GraphPad Prism.
`C/C(=C\c1cc(F)c(Oc2ccc(S(=O)(=O)NCCOCCOCCOCCNC(=O)OCCOCCOCCOC(=O)NCCOCCOCCOCCNS(=O)(=O)c3ccc(Oc4c(F)cc(/C=C(\C)C(=O)N=C(N)N)cc4F)cc3)cc2)c(F)c1)C(=O)N=C(N)N`: the pIC50 was 7.50.

For `CN(C)[C@H]1Cc2c(Cl)cc(Cl)cc2[C@@H]1Oc1ccc(S(=O)(=O)NCCOCCOCCNC(=O)[C@H](O)[C@@H](O)C(=O)NCCOCCOCCNS(=O)(=O)c2ccc(O[C@H]3c4cc(Cl)cc(Cl)c4C[C@@H]3N(C)C)cc2)cc1`, the pIC50 was 8.60.

With `CN(CCCNC(=O)NCCOCCOCCOCCNS(=O)(=O)c1cccc([C@@H]2CN(C)Cc3c(Cl)cc(Cl)cc32)c1)CCCNC(=O)NCCOCCOCCOCCNS(=O)(=O)c1cccc([C@@H]2CN(C)Cc3c(Cl)cc(Cl)cc32)c1`, the pIC50 is 7.40.

`CN1Cc2c(Cl)cc(Cl)cc2[C@H](c2cccc(S(=O)(=O)NCCOCCOCCNC(=O)CCC(CCC(=O)NCCOCCOCCNS(=O)(=O)c3cccc([C@@H]4CN(C)Cc5c(Cl)cc(Cl)cc54)c3)(CCC(=O)NCCOCCOCCNS(=O)(=O)c3cccc([C@@H]4CCN(C)c5c(Cl)cc(Cl)cc54)c3)NC(=O)[C@H]3CCCC[C@@H]3C(=O)O)c2)C1`: the pIC50 was 6.90.

`CCCCCCCCCCC(=O)NCCOCCOCCOCCNS(=O)(=O)c1cccc([C@@H]2CN(C)Cc3c(Cl)cc(Cl)cc32)c1`: the pIC50 was greater than 5.00.

Regarding `CN1Cc2c(Cl)cc(Cl)cc2C(c2cccc(S(=O)(=O)NCCOCCOCCOCCNC(=O)CCN(CCC(=O)NCCOCCOCCOCCNS(=O)(=O)c3cccc([C@@H]4CN(C)Cc5c(Cl)cc(Cl)cc54)c3)CCC(=O)NCCOCCOCCOCCNS(=O)(=O)c3cccc([C@@H]4CN(C)Cc5c(Cl)cc(Cl)cc54)c3)c2)C1` (stereo partly specified), the pIC50 is 6.50.

Take `NCCOCCOCCNS(=O)(=O)c1ccc(O[C@H]2c3cc(Cl)cc(Cl)c3C[C@@H]2N2CCCCC2)cc1`: the pIC50 is greater than 5.00.

Take `CN1Cc2c(Cl)cc(Cl)cc2[C@H](c2cccc(S(=O)(=O)NCCOCCOCCNC(=O)CCC(CCC(=O)NCCOCCOCCNS(=O)(=O)c3cccc([C@@H]4CN(C)Cc5c(Cl)cc(Cl)cc54)c3)(CCC(=O)NCCOCCOCCNS(=O)(=O)c3cccc([C@@H]4CN(C)Cc5c(Cl)cc(Cl)cc54)c3)NC(=O)NC(CO)CO)c2)C1`: the pIC50 is 7.10.

Consider `CN1Cc2c(Cl)cc(Cl)cc2[C@H](c2cccc(S(=O)(=O)NCCOCCOCCNC(=O)CCC(CCC(=O)NCCOCCOCCNS(=O)(=O)c3cccc([C@@H]4CN(C)Cc5c(Cl)cc(Cl)cc54)c3)(CCC(=O)NCCOCCOCCNS(=O)(=O)c3cccc([C@@H]4CN(C)Cc5c(Cl)cc(Cl)cc54)c3)NC(=O)CCCC(=O)O)c2)C1`, for which the pIC50 is 7.30.

For `CN1Cc2c(Cl)cc(Cl)cc2[C@H](c2cccc(S(=O)(=O)NCCOCCOCCNC(=O)CCC(CCC(=O)NCCOCCOCCNS(=O)(=O)c3cccc([C@@H]4CN(C)Cc5c(Cl)cc(Cl)cc54)c3)(CCC(=O)NCCOCCOCCNS(=O)(=O)c3cccc([C@@H]4CN(C)Cc5c(Cl)cc(Cl)cc54)c3)NC(=O)CCC(=O)O)c2)C1`, the pIC50 is 7.50.

For `CCOCCOCCC(=O)N(CCNC(=O)NCCOCCOCCNS(=O)(=O)c1cccc([C@@H]2CN(C)Cc3c(Cl)cc(Cl)cc32)c1)CCNC(=O)NCCOCCOCCNS(=O)(=O)c1cccc([C@@H]2CN(C)Cc3c(Cl)cc(Cl)cc32)c1`, the pIC50 was 6.80.

As for `CCNC(=O)CCOCCOCCOCCOCCOCCC(=O)NCCOCCOCCOCCN1CCN(c2ccc(-c3nc(NC(=N)N)nc4ccc(Cl)cc34)cc2)CC1`, the pIC50 is 7.68.

On to `CN1Cc2c(Cl)cc(Cl)cc2[C@@H](c2cccc(S(=O)(=O)NCCOCCOCCNC(=O)NCCCCNC(=O)NCCOCCOCCNS(=O)(=O)c3cccc([C@@H]4CN(C)Cc5c(Cl)cc(Cl)cc54)c3)c2)C1`, for which the pIC50 was 7.30 and > 5.00.

In the case of `N=C(N)Nc1nc(-c2cccc(S(=O)(=O)NCCOCCOCCOCCN)c2)c2cc(Cl)ccc2n1`, the pIC50 was 6.10.

Turning to `C/C(=C\c1cc(F)c(Oc2ccc(S(=O)(=O)NCCOCCOCCOCCNCc3ccc(CNCCOCCOCCOCCNS(=O)(=O)c4ccc(Oc5c(F)cc(/C=C(\C)C(=O)N=C(N)N)cc5F)cc4)cc3)cc2)c(F)c1)C(=O)N=C(N)N`, the pIC50 was 6.70.

Consider `CN(C)[C@H]1Cc2ccc(F)cc2[C@@H]1Oc1ccc(S(=O)(=O)NCCOCCOCCNC(=O)NCCCCNC(=O)NCCOCCOCCNS(=O)(=O)c2ccc(O[C@H]3c4cc(F)ccc4C[C@@H]3N(C)C)cc2)cc1`, for which the pIC50 was greater than 5.00.

`CN1Cc2c(Cl)cc(Cl)cc2[C@H](c2cccc(S(=O)(=O)N(C)CCOCCOCCNC(=O)NCCCN(CCCNC(=O)NCCOCCOCCN(C)S(=O)(=O)c3cccc([C@@H]4CN(C)Cc5c(Cl)cc(Cl)cc54)c3)CCCNC(=O)NCCOCCOCCN(C)S(=O)(=O)c3cccc([C@@H]4CN(C)Cc5c(Cl)cc(Cl)cc54)c3)c2)C1`: the pIC50 was 7.00.

`CN1Cc2c(Cl)cc(Cl)cc2[C@H](c2cccc(S(=O)(=O)NCCOCCOCCOCCNC(=O)CN(CC(=O)NCCOCCOCCOCCNS(=O)(=O)c3cccc([C@@H]4CN(C)Cc5c(Cl)cc(Cl)cc54)c3)CC(=O)NCCOCCOCCOCCNS(=O)(=O)c3cccc([C@@H]4CN(C)Cc5c(Cl)cc(Cl)cc54)c3)c2)C1`: the pIC50 is 7.10.

`CN1Cc2c(Cl)cc(Cl)cc2[C@H](c2cccc(S(=O)(=O)NCCOCCOCCNC(=O)NCCC[N+](C)(CCCNC(=O)NCCOCCOCCNS(=O)(=O)c3cccc([C@@H]4CN(C)Cc5c(Cl)cc(Cl)cc54)c3)CCCNC(=O)NCCOCCOCCNS(=O)(=O)c3cccc([C@@H]4CN(C)Cc5c(Cl)cc(Cl)cc54)c3)c2)C1`: the pIC50 is 7.40.

With `CN(C)[C@H]1Cc2ccccc2[C@@H]1Oc1ccc(S(=O)(=O)NCCOCCOCCNC(=O)NCCCCNC(=O)NCCOCCOCCNS(=O)(=O)c2ccc(O[C@H]3c4ccccc4C[C@@H]3N(C)C)cc2)cc1`, the pIC50 was greater than 5.00.

`N=C(N)Nc1nc(-c2ccc(OCCOCCOCCOCCN)cc2)c2cc(Cl)ccc2n1`: the pIC50 was 7.50.

`CCOCCOCCOCCNC(=O)[C@H](O)[C@@H](O)C(=O)NCCOCCOCCOCCNS(=O)(=O)c1ccc(O[C@H]2c3ccccc3C[C@@H]2N2CCCCC2)cc1`: the pIC50 is 7.70.

Consider `CN1Cc2c(Cl)cc(Cl)cc2[C@H](c2cccc(S(=O)(=O)NCCOCCOCCOCCNC(=O)CN3CCN(c4nc(N5CCN(CC(=O)NCCOCCOCCOCCNS(=O)(=O)c6cccc([C@@H]7CN(C)Cc8c(Cl)cc(Cl)cc87)c6)CC5)nc(N5CCN(CC(=O)NCCOCCOCCOCCNS(=O)(=O)c6cccc([C@@H]7CN(C)Cc8c(Cl)cc(Cl)cc87)c6)CC5)n4)CC3)c2)C1`, for which the pIC50 is 6.60.

For the compound `CN1Cc2c(Cl)cc(Cl)cc2[C@H](c2cccc(S(=O)(=O)NCCOCCOCCN(C)C(=O)CCC(N)(CCC(=O)N(C)CCOCCOCCNS(=O)(=O)c3cccc([C@@H]4CN(C)Cc5c(Cl)cc(Cl)cc54)c3)CCC(=O)N(C)CCOCCOCCNS(=O)(=O)c3cccc([C@@H]4CN(C)Cc5c(Cl)cc(Cl)cc54)c3)c2)C1`, the pIC50 is 7.80.

In the case of `CN1Cc2c(Cl)cc(Cl)cc2[C@H](c2cccc(S(=O)(=O)NCCOCCOCCNC(=O)COCC(=O)NCCOCCOCCNS(=O)(=O)c3ccc(O[C@H]4c5ccccc5C[C@@H]4N4CCCCC4)cc3)c2)C1`, the pIC50 was 7.60.

On to `COCCOCCOCCOCCC(=O)NCCOCCOCCOCCN1CCN(c2cccc(-c3nc(NC(=N)N)nc4ccc(Cl)cc34)c2)CC1`, for which the pIC50 is 7.30.

For `CN1Cc2c(Cl)cc(Cl)cc2[C@H](c2cccc(S(=O)(=O)NCCOCCOCCOCCN)c2)C1`, the pIC50 was 7.34.

Regarding `C/C(=C\c1cc(F)c(Oc2ccc(S(=O)(=O)NCCOCCOCCOCCNC(=O)NCCOCCOCCNC(=O)NCCOCCOCCOCCNS(=O)(=O)c3ccc(Oc4c(F)cc(/C=C(\C)C(=O)N=C(N)N)cc4F)cc3)cc2)c(F)c1)C(=O)N=C(N)N`, the pIC50 was 7.00.

For the compound `CN1Cc2c(Cl)cc(Cl)cc2[C@H](c2cccc(S(=O)(=O)NCCOCCOCCNC(=O)CCC(CCC(=O)NCCOCCOCCNS(=O)(=O)c3cccc([C@@H]4CN(C)Cc5c(Cl)cc(Cl)cc54)c3)(CCC(=O)NCCOCCOCCNS(=O)(=O)c3cccc([C@@H]4CN(C)Cc5c(Cl)cc(Cl)cc54)c3)NC(=O)NCC(=O)O)c2)C1`, the pIC50 was 7.53.

In the case of `O=C(NCCOCCOCCOCCNS(=O)(=O)c1ccc(O[C@H]2c3ccccc3C[C@@H]2N2CCCCC2)cc1)c1ccc(C(=O)NCCOCCOCCOCCNS(=O)(=O)c2ccc(O[C@H]3c4ccccc4C[C@@H]3N3CCCCC3)cc2)cc1`, the pIC50 is 7.50.

On to `COCCOCCOCCC(=O)NCCOCCOCCOCCN1CCN(c2cccc(-c3nc(NC(=N)N)nc4ccc(Cl)cc34)c2)CC1`, for which the pIC50 was 6.87.

On to `CN1Cc2c(Cl)cc(Cl)cc2[C@H](c2cccc(S(=O)(=O)NCCOCCOCCNC(=O)NCCCC(CCCNC(=O)NCCOCCOCCNS(=O)(=O)c3cccc([C@@H]4CN(C)Cc5c(Cl)cc(Cl)cc54)c3)(CCCNC(=O)NCCOCCOCCNS(=O)(=O)c3cccc([C@@H]4CN(C)Cc5c(Cl)cc(Cl)cc54)c3)NC(=O)NC[C@H](O)[C@@H](O)[C@H](O)[C@H](O)CO)c2)C1`, for which the pIC50 is 5.80.

Regarding `CN1Cc2c(Cl)cc(Cl)cc2[C@H](c2cccc(S(=O)(=O)NCCOCCOCCOCCNC(=O)CCC(N)(CCC(=O)NCCOCCOCCOCCNS(=O)(=O)c3cccc([C@@H]4CN(C)Cc5c(Cl)cc(Cl)cc54)c3)CCC(=O)NCCOCCOCCOCCNS(=O)(=O)c3cccc([C@@H]4CN(C)Cc5c(Cl)cc(Cl)cc54)c3)c2)C1`, the pIC50 is 7.20.

`C/C(=C\c1cc(F)c(Oc2ccc(S(=O)(=O)NCCOCCOCCOCCN)cc2)c(F)c1)C(=O)N=C(N)N`: the pIC50 was 6.90.

Consider `CN1Cc2c(Cl)cc(Cl)cc2[C@H](c2cccc(S(=O)(=O)NCCOCCOCCOCCNC(=O)c3cc(C(=O)NCCOCCOCCOCCNS(=O)(=O)c4cccc([C@@H]5CN(C)Cc6c(Cl)cc(Cl)cc65)c4)cc(C(=O)NCCOCCOCCOCCNS(=O)(=O)c4cccc([C@@H]5CN(C)Cc6c(Cl)cc(Cl)cc65)c4)c3)c2)C1`, for which the pIC50 was 6.90.

`O=C(NCCCCNC(=O)NCCOCCOCCNS(=O)(=O)c1ccc(O[C@H]2c3cc(F)ccc3C[C@@H]2N2CCCCC2)cc1)NCCOCCOCCNS(=O)(=O)c1ccc(O[C@H]2c3cc(F)ccc3C[C@@H]2N2CCCCC2)cc1`: the pIC50 was 8.90.

The values are drawn from ChEMBL document CHEMBL5726876, “NHE3-binding compounds and methods for inhibiting phosphate transport” (2019).
